Values quoted from earlier work as cited in patent publication US20090155200A1, “Methods of promoting cartilage healing or cartilage integration” (priority 2004, published 2009).

Test system: articular cartilage defect
Conditions: pre-treatment with trypsin; Chen et al. 2000

trypsin
integration and remodeling of implanted cartilage: improved
